# Results as given in patent publication US9029410B2, “Pharmaceutical compositions for the treatment of movement disorders” (Sarah Herzog Memorial Hospital Ezrath Nashim Association, priority 2003, dated 2015).
# Like-named read-outs stand apart in the source and are kept apart here.
# How the values were obtained:
# monkeys = details: NR2A antagonist; cited from earlier work
# [1] = tested on: neuroleptic sensitized monkeys; details: cited from earlier work
# [2] = tested on: inpatients with treatment-resistant schizophrenia
# Text: The study was approved by the appropriate institutional review boards. Seventeen stable inpatients meeting DSM-IV criteria for schizophrenia and free of other axis I diagnoses or significant medical illness were enrolled in the study. Diagnosis was established on the basis of semistructured psychiatric interviews, review of all available medical records, and confirmation by two board-certified psychiatrists. […] Medication doses remained fixed throughout the study.
# After complete description of the study, written informed consent was obtained from all participating patients. The double-blind, placebo-controlled, crossover study consisted of two random-order 6-week treatment arms (glycine 0.8 g/kg/day, or placebo), separated by a 2-week adjuvant treatment washout. Patients were assessed biweekly with the Positive and Negative Syndrome Scale (PANSS), Brief Psychiatric Rating Scale (BPRS), Simpson-Angus Rating Scale (SAS), and Abnormal Involuntary Movement Scale (AIMS) performed by one trained research psychiatrist, as previously described (3). CBC and SMA-20 measures were assessed biweekly throughout the study. Trough glycine and serine serum levels were assessed at baseline and at the end of the two treatment phases. Data were analyzed by repeated measures ANOVA with within group factor of study phase (glycine/placebo) and time within study phase (pre/post), and between group factor of treatment order.
# [3] = tested on: inpatients with treatment-resistant schizophrenia; details: glycine 0.8 g/kg/day; 2 patients; ceased following discontinuation
# Text: Three of the 14 patients who completed the study were women and 11 were men. Their mean age was 46.5 years (SD=9.6), the mean duration of their illness was 25.8 years (SD=11.0) and the mean duration of their current hospitalization was 3.0 years (SD=3.7).
# [4] = tested on: haloperidol-treated Sprague-Dewley rats
# Procedure: In this model, animals are treated chronically with antipsychotics and their vacuous chewing motions are assessed by observation.
# Sprague-Dewley rats (Harlan Laboratories, Jerusalem, Israel) weighing 150 to 170 g. were used. The rats were housed in polycarbonate cages (4 in each cage), maintained under a 12 hour-12 hour dark-light (04.00-16.00 hours) cycle, and were allowed water ad libitum. In order to limit neuroleptic-induced weight gain, the food was restricted to 15 g. pellets per animal per day, as used by Andreassen et al (1996). Rats were weighed biweekly throughout the study. Room temperature was maintained at 22±2° C. All procedures were conducted in accordance with local and international laws for the care and use of laboratory animals.
# For two weeks prior to the first drug injection, animals were handled daily and habituated to the animal colony and the procedures related to drug administration and video recording situation. Subsequently (week 0), rats underwent a behavior video recording session following which they were randomized to a haloperidol treatment and a control group. The rats in the treatment group received an intramuscular injection in the thigh muscles with haloperidol decanoate (Pericate, Unipharm Ltd., Tel Aviv, Israel), 100 mg/ml in sesame oil, at a dose of 0.35 mg/kg. The control rats were similarly injected with an equal volume of phosphate buffered saline (PBS). Twenty-three G hypodermic needles were used for all injections. […]
# Rats underwent a video recorded behavior assessment session 30-150 minutes following the injection. Two weeks after the test day (i.e., post-test day), the video recorded behavior assessment session was repeated in order to investigate longer-term effects of the experimental treatments. […]
# A trained observer, unaware of the treatment received by the rats, scored the behavior while watching the videotapes. […] The statistical significance of interaction of the between group factor and the repeated measures factor is determined in the [sequence] software package using the Rao R statistic and the F distribution. […]
# schizophrenia patients [5] = details: prior study, Heresco-Levy et al., 1999, Table 3, cited from earlier work
# schizophrenia patients [6] = details: prior study, Heresco-Levy et al., 1999, Table 3, cited from earlier work; remark: listed apart in the source
# patients = details: Tsai and Coyle '875; low baseline levels; cited from earlier work
# [7] = glycine 0.8 g/kg/day vs placebo, 6 weeks
# [8] = glycine 0.8 g/kg/day, week 6, mean, n=14
# [9] = glycine phase, baseline, mean, n=14
# [10] = mean (sd), reduction over 6 weeks of glycine 0.8 g/kg/day
# [11] = mean (sd), reduction over 6 weeks of glycine 0.8 g/kg/day, listed as glycine
smiles,measurement,setting,value
"N[C@H](CC(=O)CP(=O)(O)O)C(=O)O [MDL 100,453]",Effect on symptoms of dyskinesia,monkeys,worsening symptoms of dyskinesia
CNC1(c2ccccc2Cl)CCCCC1=O (centres unmarked) [ketamine],Motor effects of administration,[1],"induces bradykinesia, dystonia and salivation"
"NCC(=O)O [Glycine, glycine]",AIMS score decrease during glycine treatment,"[2]; 6 weeks glycine, vs 0.3 point increase during placebo, p<0.02",1.0 point
same,SAS score decrease during glycine treatment,"[2]; 6 weeks glycine, vs 0.5 point increase during placebo, p<0.05",1.3 points
same,"AIMS, Effect size (d)",[2]; [7],0.6
same,"BPRS Total, Effect size (d)",[2]; [7],1.6
same,"PANSS Cognitive Symptoms, Effect size (d)",[2]; [7],0.9
same,"PANSS Depression, Effect size (d)",[2]; [7],0.7
same,"PANSS Excitement, Effect size (d)",[2]; [7],0.6
same,"PANSS Negative Symptoms, Effect size (d)",[2]; [7],2.1
same,"PANSS Positive Symptoms, Effect size (d)",[2]; [7],0.7
same,"SAS, Effect size (d)",[2]; [7],0.6
same,"AIMS, Score at Week 6",[2]; [8],2.6
same,"BPRS Total, Score at Week 6",[2]; [8],36.6
same,"PANSS Cognitive Symptoms, Score at Week 6",[2]; [8],17.9
same,"PANSS Depression, Score at Week 6",[2]; [8],13.4
same,"PANSS Excitement, Score at Week 6",[2]; [8],12.0
same,"PANSS Negative Symptoms, Score at Week 6",[2]; [8],20.4
same,"PANSS Positive Symptoms, Score at Week 6",[2]; [8],14.0
same,"SAS, Score at Week 6",[2]; [8],4.0
same,"PANSS Negative Symptoms, Score at Baseline","[2]; glycine phase, baseline, mean, 14 inpatients on olanzapine or risperidone",24.6
same,"AIMS, Score at Baseline",[2]; [9],3.6
same,"BPRS Total, Score at Baseline",[2]; [9],42.6
same,"PANSS Cognitive Symptoms, Score at Baseline",[2]; [9],19.1
same,"PANSS Depression, Score at Baseline",[2]; [9],14.4
same,"PANSS Excitement, Score at Baseline",[2]; [9],13.2
same,"PANSS Positive Symptoms, Score at Baseline",[2]; [9],15.4
same,"SAS, Score at Baseline",[2]; [9],5.3
same,"AIMS, % Change during glycine",[2]; [10],32.2 (30.4) %
same,"BPRS Total, % Change during glycine",[2]; [10],13.7 (7.5) %
same,"PANSS Cognitive Symptoms, % Change during glycine",[2]; [10],9.2 (6.8) %
same,"PANSS Depression, % Change during glycine",[2]; [10],7.4 (17.1) %
same,"PANSS Excitement, % Change during glycine",[2]; [10],10.6 (20.9) %
same,"PANSS Negative Symptoms, % Change during glycine",[2]; [10],23.3 (8.4) %
same,"PANSS Positive Symptoms, % Change during glycine",[2]; [10],11.4 (11.7) %
same,"SAS, % Change during glycine",[2]; [10],17.9 (40.1) %
same,"AIMS, % Change during glycine",[2]; [11],32.2%
same,"SAS, % Change during glycine",[2]; [11],18%
same,Adverse effect leading to withdrawal during glycine administration,[3],mild upper gastrointestinal tract discomfort
same,Number of VCM at baseline vs post-test day,"[4]; 2 weeks after acute glycine 1.6 g/kg, p<0.07, VCM returned to pre-treatment levels",did not differ significantly
same,"VCM frequency, glycine vs placebo group at test day","[4]; glycine 1.6 g/kg intraperitoneal, acute, p<0.01",significantly lower VCM frequency
same,Reduction in the number of VCM episodes,"[4]; glycine 1.6 g/kg intraperitoneal, test day vs baseline, 30-150 minutes after injection, p<0.001",82%
same,SAS score before glycine treatment,schizophrenia patients [5],1.3 points
same,SAS score after glycine treatment,schizophrenia patients [5]; not significant vs placebo,0.6 points
same,AIMS score before glycine treatment,schizophrenia patients [6],1.9
same,AIMS score after glycine treatment,schizophrenia patients [6]; not significant vs placebo,1.4
CNCC(=O)O [N-methylglycine],Changes in SAS or AIMS scores,patients,no significant changes
